Columns and labels:
exTrkB = target: T1, exTrkB (Homo sapiens, UniProt Q16620); assay: MST binding affinity (Kd) determination
T1 construct: human TrkB receptor (exTrkB), residues 1−430, was cloned into the pCMV2 expression vector; made in house; host or cells: ExpiCHO-S cells
Experimental: The gene encoding the extracellular domain of the human TrkB receptor (exTrkB), residues 1−430, was cloned into the pCMV2 expression vector. Protein expression was performed in suspension-cultivated mammalian ExpiCHO-S cells using the ExpiFectamine (Thermo Scientific, Thermo Fisher Scientific, Waltham, MA, USA) transfection reagent. The secreted protein was purified using a four-step protocol. Clarified culture medium was precipitated with ammonium sulfate added to a final concentration of 1.5 M and centrifuged (235,000× g, 60 min at 4 °C). The supernatant after centrifugation was applied on a HiTrap Phenyl column (GE Healthcare, Chicago, IL, USA) equilibrated with buffer A (25 mM Tris, 1 mM DTT; pH 7.5) with 1.5 M ammonium sulfate. Bound proteins were eluted with a linear gradient of buffer A. The eluted proteins were dialyzed overnight in buffer A and loaded on a CaptoQ ImpRes column (GE Healthcare) equilibrated with buffer A with 50 mM NaCl. The bound proteins were eluted with a linear gradient of buffer A with 1 M NaCl. The fractions containing exTrkB protein were pooled, and MnCl2 and CaCl2 (1mM final concentration each) were added. The sample was purified on a HiTrap Con A 4B column (GE Healthcare) equilibrated with buffer B (25 mM Tris, 0.5 M NaCl, 1 mM MnCl2, 1 mM CaCl2; pH 7.5) and eluted with buffer C (25 mM Tris, 0.1 M NaCl, 0.4 M α-D-glucopyranoside; pH 6.5). To improve the protein recovery, buffer C flow was paused nine times during elution. The eluted fractions were concentrated and purified by size-exclusion chromatography on a HiLoad 16/600 Superdex 200 column (GE Healthcare) in buffer A with 0.5 M NaCl. The protein samples were concentrated to 1 mg/mL, and buffer was exchanged (PBS; pH 7.4). Samples were frozen in liquid nitrogen and stored at −80 °C. The protein purity was estimated by SDS–PAGE followed by Coomassie Brilliant Blue staining. The protein concentration was determined from the absorption at 280 nm using an UV NanoDrop 1000 spectrophotometer (Thermo Scientific).
The exTrkB was labeled with a Monolith Protein Labeling Kit RED-NHS 2nd Generation (NanoTemper Technologies GmbH, Munich, Germany) according to the manufacturer’s protocol. The labelling efficiency was always determined spectrophotometrically with NanoPhotometer® NP80 (Impel) in line with the manufacturer’s recommendations. Labelled exTrkB protein was aliquoted and stored at −80 °C to avoid repeated freeze–thaw cycles. Before analysis, the exTrkB protein was thawed on ice and diluted with MST buffer (50 mM Tris pH = 8; 150 mM NaCl; 10 mM MgCl2; 0.1% Tween20) to the desired concentration.
For primary screening (single-point MST experiments for signal amplitude determination), each of the 987 screened compounds were diluted in MST buffer + 0.1% Tween20 to a final concentration of 0.5 mM. The tested compounds were mixed with exTrkB solution (the final concentration of exTrkB was 20 nM) and centrifuged (10,000× g, 4 min at 4 °C) to eliminate protein and compound aggregates. Before loading to capillaries (Monolith NT.115 Capillaries, NanoTemper Technologies GmbH), the samples were incubated for 5 min at 25 °C and then placed into the MST apparatus (Monolith, NanoTemper Technologies GmbH). The experiments were performed using nano-blue excitation, LED light adjusted to 20% excitation power, and MST power set to medium, and the fluorescence signal during thermophoresis was detected after 30 s. Single-point MST experiments were performed by the determination of the amplitude signal between the unbound and bound state between the molecule and exTrkB, which was analyzed using the MO.Control Software version 1.6 (NanoTemper Technologies GmbH). A reference sample containing only exTrkB and the equivalent DMSO concentration (v/v) was included in each individual MST experiment. At least three technical replicates were prepared for each of the tested compounds. A binding affinity study was performed for 113 of the selected compounds at 16 concentration points. […]

TrkB receptor = target: T2, TrkB receptor (Rattus norvegicus, UniProt Q63604); assay: ELFI TrkB phosphorylation, orthosteric agonist mode, SN56 T48 cell line; format: cell-based; settings: 0.125–100 μM, 15 min
T2 construct: host or cells: SN56 T48 cell line
Experimental: The SN56 T48 cell line with stable overexpression of the TrkB receptor was purchased from Emory University (Atlanta, GA, USA) and cultivated according to the protocol described in Jang et al., 2010 [12]. The cell lines were cultivated with the following reagents: DMEM High Glucose, fetal bovine serum (FBS), Penicillin-Streptomycin Solution 100×, and Trypsin-EDTA 1×; all were purchased from Biowest, and G418 was from ThermoFisher Scientific. For the ELFI experiments, cells were seeded (8000/well) on a PDL-treated 96-well plate (BioCoat™, Corning Inc., Corning, NY, USA) and 6-well plate (400,000/well) for lysate collection and immunoblot analysis.
In the orthosteric agonist mode experiments, starved cells (5 h) were treated with compounds (0.125–100 μM; volume, 100 μL/well) or BDNF (0.01–10 nM; volume, 100 μL/well) dissolved in culture medium. In the allosteric modulation mode experiments, starved cells (5 h) were treated with final compound concentrations of 3, 10, and 30 μM; volume, 50 μL/well) in the presence of a rising concentration of BDNF (final concentration in well, 0.15–5 nM; volume, 50 μL/well). Corresponding treatment with DMSO (v/v) was performed for a control. Cells were treated for 15 min in both the orthosteric and allosteric modulation mode experiments.
The analysis of TrkB receptor activation was performed using the ELFI method adapted from Boltayev et al. (2017) with some modifications. After compound treatment, experiments were stopped by fixing cells with 10% buffered formalin (Kolchem, Lodz, Poland) for 20 min (volume, 100 μL/well). Afterwards, cells were permeabilized with washing buffer (TBS+ 0.1% Tween20) for 15 min, and endogenous peroxidases were quenched by 20 min of incubation with 1% H2O2 dissolved in TBS (each solution: volume, 100 μL/well). Epitopes were blocked with 10% BSA (Biowest) dissolved in washing buffer for 2 h (volume, 100 μL/well) and incubated with anti-pTrkB (Tyr707) primary antibody (Cell Signaling Technology, Danvers, MA, USA) diluted in washing buffer (1:500; overnight at 4 °C; volume, 100 μL/well). After repeated washing, cells were incubated with HRP-linked anti-rabbit antibody (Cell Signaling Technology) for 2 h (1:1000; RT; volume, 100 μL/well) and washed. The cells were then incubated with 100 μL of ImmunoCruz™ Western Blotting Luminol (Santa Cruz Biotechnology, Dallas, TX, USA) for 1 min in the dark, and the signals were measured using a microplate luminometer (VICTOR Light 1420-060, PerkinElmer®, Waltham, MA, USA). For non-specific binding, cells were treated, with the exception of primary antibody.

Caco-2 monolayer = assay: Caco-2 passive permeability; settings: for Papp,AB: Caco-2, apical to basal; for Papp,AB / Papp,BA: 2 h; for Papp,BA: Caco-2, basal to apical
[1] = Metabolic stability in mouse liver microsomes; settings: for Clint MLM: 1 μM, phase I; for Metabolic stability in MLM (classification): compared with verapamil
PAMPA = settings: for PAMPA: 10 μM, 4 h
[2] = Chemical stability pH 7.4; format: physicochemical; settings: pH = 7.4, 4 h
[3] = Metabolic stability in human liver microsomes; settings: for Clint HLM: 1 μM, phase I; for Metabolic stability in HLM (classification): compared with verapamil
in vivo = format: in vivo, BALB/c mice; settings: mouse, in vivo
Experimental: The animals were obtained from the Center of Experimental Medicine (University of Bialystok, Bialystok, Poland) and housed under standard laboratory conditions. Mice had unlimited access to water and food. All the procedures were conducted according to the guidelines of the local ethical commission (appl no. 06/2019, perm. no 10/2019). […] Four animals per time point were sacrificed at 10 min, 30 min, 1 h, 2 h, and 4 h after per os administration and 5 min, 10 min, 30 min, 1 h, and 2 h after i.v. administration. The blood (0.5 mL) was collected by heart puncture using probes with anticoagulants (K2EDTA). Plasma samples were obtained by blood centrifugation (15 min, 3000× g at 23 °C). The whole brain was dissected from the skull and washed with cold 0.9% NaCl on ice. The left hemisphere was quickly frozen in liquid nitrogen and stored at −80 °C for further bioanalytical analysis. From the right hemisphere, the hippocampus and frontal cortex were isolated, weighed, and stored at −80 °C after freezing in liquid nitrogen. Isolated structures were homogenized in N-PER cocktail (10 μL for every 1 mg of tissue) using a hand homogenizer, and then processed as described in Section 4.3.3.
For bioanalytical evaluation, brain samples were homogenized in water (3 mL for every 1 g of brain tissue). Plasma and brain samples were then prepared by precipitating proteins and extracting analytes using acetonitrile with the addition of the internal standard: 150 μL of extraction solution was added to 50 μL of biological material, mixed for 1 min and centrifuged (12,900 RPM, 4 min, 4 °C), and the supernatant was collected for analysis. Standard solutions including calibration standards and quality control samples were prepared by spiking 45 μL of biological material with 5 μL of standard working solution, adding 150 μL of extraction solution, and then mixing, centrifuging, and collecting the supernatant for analysis. The concentrations of analytes in the plasma and brain samples were determined using a UPLC-MS/MS instrument (Agilent Technologies) and chromatographic columns (Agilent Zorbax Eclipse 50 × 2.1 mm; 1.7 μm).

[4] = Caco-2 passive permeability; settings: human, Caco-2, with 5 μM elacridar and 20 μM cyclosporine A
[5] = pH 7.4

T2 sequence (Q63604 32-821): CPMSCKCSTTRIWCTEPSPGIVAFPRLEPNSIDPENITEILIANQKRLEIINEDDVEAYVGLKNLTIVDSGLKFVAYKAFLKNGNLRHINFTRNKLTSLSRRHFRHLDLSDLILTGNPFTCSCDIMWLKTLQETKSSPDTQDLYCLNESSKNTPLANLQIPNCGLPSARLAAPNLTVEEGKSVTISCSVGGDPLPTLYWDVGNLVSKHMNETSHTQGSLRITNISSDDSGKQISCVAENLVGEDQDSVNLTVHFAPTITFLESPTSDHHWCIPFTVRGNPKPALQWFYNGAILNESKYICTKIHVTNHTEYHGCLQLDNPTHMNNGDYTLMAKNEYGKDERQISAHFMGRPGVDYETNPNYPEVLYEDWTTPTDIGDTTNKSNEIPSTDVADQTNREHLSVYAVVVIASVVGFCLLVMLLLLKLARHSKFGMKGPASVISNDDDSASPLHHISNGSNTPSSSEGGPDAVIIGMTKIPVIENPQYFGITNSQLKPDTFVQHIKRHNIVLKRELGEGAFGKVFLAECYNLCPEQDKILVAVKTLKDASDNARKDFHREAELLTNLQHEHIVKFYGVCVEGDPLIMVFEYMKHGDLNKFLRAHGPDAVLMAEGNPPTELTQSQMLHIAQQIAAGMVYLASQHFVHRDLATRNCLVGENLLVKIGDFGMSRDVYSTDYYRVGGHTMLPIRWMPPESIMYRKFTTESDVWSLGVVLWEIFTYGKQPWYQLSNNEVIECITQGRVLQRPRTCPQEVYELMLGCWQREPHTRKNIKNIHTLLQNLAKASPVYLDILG
T1 sequence (Q16620 32-430): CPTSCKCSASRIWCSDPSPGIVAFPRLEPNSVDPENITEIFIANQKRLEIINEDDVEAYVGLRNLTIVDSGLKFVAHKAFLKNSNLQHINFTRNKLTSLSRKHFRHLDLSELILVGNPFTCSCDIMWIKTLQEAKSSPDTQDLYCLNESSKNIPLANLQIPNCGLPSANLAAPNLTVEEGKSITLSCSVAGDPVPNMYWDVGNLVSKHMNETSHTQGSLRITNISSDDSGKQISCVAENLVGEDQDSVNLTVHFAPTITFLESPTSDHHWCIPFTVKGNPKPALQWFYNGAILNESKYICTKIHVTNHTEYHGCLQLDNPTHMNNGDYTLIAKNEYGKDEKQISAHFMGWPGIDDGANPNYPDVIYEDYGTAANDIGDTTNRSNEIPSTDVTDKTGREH

Compound	Binding to the exTrkB receptor (exTrkB)	Orthosteric activity (induction of TrkB phosphorylation) (TrkB receptor)	Papp,AB (Caco-2 monolayer)	Papp,BA (Caco-2 monolayer)	Clint MLM [1] [μL·min^−1·mgprotein^−1]	Metabolic stability in MLM (classification) [1]	PAMPA (PAMPA)	Chemical Stability [% of Degradation] [2]	Clint HLM [3] [μL·min^−1·mgprotein^−1]	Metabolic stability in HLM (classification) [3]	Kinetic Solubility [5] [µM]	also measured
CN(C)c1ccc(-c2cc(=O)c3ccc(O)c(O)c3o2)cc1 [4′-dimethylamino-7,8-DHF]	not observed	did not observe any orthosteric activity	15.61 10^−6·cm/s	9.03 10^−6·cm/s	365.1	highly unstable	15.5 10^−6·cm/s	1.31%	175.7	highly unstable	–	Permeability in Caco-2 system (good permeability) (Caco-2 monolayer): > 10^−6 cm/s; Permeability in PAMPA assay (good permeability) (PAMPA): > 10^−6 cm/s
7-hydroxy-8-methoxyflavone (7H8M-flavone) and 8-hydroxy-7-methoxyflavone (8H7M-flavone) [7H8M-flavone 8H7M-flavone]	–	–	–	–	–	–	–	–	–	–	–	C brain, individual mice (in vivo; 50 mg/kg): < LLQ; C brain, individual mice (in vivo; iv, 1 mg/kg): < LLQ; C plasma, individual mice (in vivo; iv, 1 mg/kg): < LLQ; Time of maximal plasma concentration (in vivo; iv, 1 mg/kg): 5 min; Time of maximal plasma concentration (in vivo; po, 50 mg/kg): 10 min
NCCCC[C@H](NC(=O)[C@H](CO)NC(=O)CCC(=O)O)C(=O)NCCCCCCNC(=O)[C@H](CCCCN)NC(=O)[C@H](CO)NC(=O)CCC(=O)O [GSB-106, [OH-Suc-Ser-Lys-NH-(CH2)3-]2]	not observed	did not observe any orthosteric activity	–	–	–	instability of this compound in the experimental system	0.85 10^−6·cm/s	Stable	–	instability of this compound in the experimental system	152.7	–

Second part, led by results:

Binding to the exTrkB receptor (exTrkB)	Orthosteric activity (induction of TrkB phosphorylation) (TrkB receptor)	Papp,AB (Caco-2 monolayer)	Papp,BA (Caco-2 monolayer)	Clint MLM [1] [μL·min^−1·mgprotein^−1]	Metabolic stability in MLM (classification) [1]	PAMPA (PAMPA)	Chemical Stability [% of Degradation] [2]	Clint HLM [3] [μL·min^−1·mgprotein^−1]	Metabolic stability in HLM (classification) [3]	Kinetic Solubility [5] [µM]	Compound	also measured
not observed	did not observe any orthosteric activity	–	–	–	highly unstable	0.22 10^−6·cm/s	Stable	–	highly unstable	–	COc1ccc(-c2cc3cccc(O)c3c(=O)o2)cc1 [Isocumarin, 8-hydroxy-3-(4′-methoxyphenyl)-isocumarin]	Papp A→B at 2 h [4]: 1.6 ×10⁻⁶ cm/s; Papp B→A at 2 h [4]: 2.18 ×10⁻⁶ cm/s; microsomal CLint at 1 μM ([1]; mouse, liver microsomes): 407 µL/min/mg; microsomal CLint at 1 μM ([3]; human, liver microsomes): 781 µL/min/mg
not observed	did not observe any orthosteric activity	1.11 10^−6·cm/s	2.29 10^−6·cm/s	2.1	very good metabolic stability	1.24 10^−6·cm/s	Stable	–	very good metabolic stability	437	O=C1NCCCC1C(=O)NCCc1c[nH]c2ccc(O)cc12 (stereo not shown) [HIOC]	–
not observed	did not observe any orthosteric activity	6.47 10^−6·cm/s	4.97 10^−6·cm/s	4.8	stable	2.36 10^−6·cm/s	4.18%	29	moderately stable	–	OCCN(CCO)c1ccc(C(c2ccc(Cl)cc2)c2ccc(N(CCO)CCO)cc2)cc1 [LM22-B10]	Kd (exTrkB; non-binding compounds given as 0): 83 µM
